Read-outs that look alike come from different tables or passages of the source. No end group written: not given here.
Legend:
[1] = system: Salmonella; assay: Salmonella reverse mutation assay; type: cell-based; details: 100-5,000 μg/ml, with or without rat liver microsomal enzyme activation
Description: The mutagenic potential of CT-112 (SEQ. ID NO: 1) has been assessed.

[2] = Acute toxicity in mice; type: in vivo, mouse; details: intravenous 100, 500 or 1,000 mg/kg
Method: Acute toxicity of CT-112 (SEQ. ID NO: 1) in mice and rats was assessed. Mice were dosed by intravenous injection with CT-112 (SEQ. ID NO: 1) at 100, 500 or 1,000 mg/kg.

[3] = system: myeloperoxidase activity in mouse ear; assay: Myeloperoxidase activity in AA-treated mouse ear tissue (PMN marker); type: in vivo; details: Table II
Method: Myeloperoxidase activity in ear tissue was measured as a marker for the presence or absence of polymorphonuclear leukocytes (PMNs) (Barone et al., 1991, J. Neurosci. Res. 29:336-345). After measurement of ear thickness, ears were dissected from the mice and homogenized in 50 mM Tris-HCL, pH 7.4 at 4° C. to give a 10% (w/v) homogenate. Aliquots of the homogenate were used to determine the amount of myeloperoxidase activity present in the tissue using o-dianisidine (Sigma Chem Co., St. Louis Mo.) and hydrogen peroxide as substrates and monitoring chromophore generation at 460 nm (Barone et al., 1991, J. Neurosci. Res. 29:336-345).

[4] = system: neutrophils; assay: Neutrophil chemotaxis to leukotriene B4; type: cell-based; details: 15 min pre-exposure; read at 1 hr; FIG. 4
Method: The ability of CT-112 (SEQ. ID NO: 1) to inhibit chemotaxis of neutrophils in response to a variety of agents was assessed using Neuroprobe chemotaxis chambers. For these assays, neutrophils were resuspended in Hank's balanced salt solution with Ca^2+ and Mg^2+ to give a 5×10^6 cells/ml suspension after the cells were labeled with 1',7'-bis(2-carboxyethyl)-5-(6)-carboxyfluorescein. The neutrophils were exposed to CT-112 (SEQ. ID NO: 1) for approximately 15 min prior to addition to the chemotaxis chambers. CT-112 (SEQ. ID NO: 1) was present in both the top and bottom of the chambers, and the chemoattractant, either f-Met-Leu-Phe, leukotriene B4 or interleukin-8, was added to the bottom of chamber. Cells which had migrated through the membrane were determined by fluorescence at 530 nm at 1 hr after initiation of the assay.

[5] = Acute toxicity in rats; type: in vivo, rat; details: rats, 100, 500 or 1,000 mg/kg
Method: Rats were dosed with CT-112 (SEQ. ID NO: 1) at 100, 500 or 1,000 mg/kg. […] All rats returned to normal appearance the day after treatment.

[6] = system: DNCB-induced delayed-type hypersensitivity; assay: Delayed-type hypersensitivity to DNCB, ear thickness; type: in vivo, mouse
Method: CT-112 (SEQ. ID NO: 1) was tested for its ability to modulate the immune response in a mouse model of delayed hypersensitivity (Filipp et al., 1984, Allergy, 39: 499-507; Diezel et al., 1989 J. Invest. Dermatol. 93:322-326). The mice used in this study were 8-wk old hairless females (Jackson Laboratories). The mice were sensitized to a contact allergen (1-chloro-2,4-dinitrobenzene, DNCB) by painting the dorsothoracic region twice daily for 5 consecutive days with 50 μl of 0.5% DNCB in 75% acetone:25% vegetable oil. The animals were allowed to rest for 24 hr prior to challenge with DNCB. On the sixth day after initiation of the sensitization treatments, the animals were challenged with 50 μl of DNCB solution applied to the left ear. After 24 hrs, the ear thickness was determined and compared to the unchallenged ear.
The treatment groups were as follows:
b) Prednisone (intraperitoneal injection of 25 mg/kg, 2 hr prior to challenge);
d) CT-112 (intraperitoneal injections of 60 mg/kg/injection at 3, 1, and 0.25 hr prior to challenge and 3, 6 and 21 hr post-challenge);
e) DMSO control (topical application of 50 μl at 3, 1 and 0.25 hr prior to challenge; and
f) CT-112 in DMSO (20 mg/ml, topical application of 50 μl at 3, 1, and 0.25 hr prior to challenge and 3, 6 and 21 hr post-challenge).

[7] = system: type-II collagen-induced arthritis; type: in vivo, mouse
Method: Mice (DBA/1, 10-12 weeks old, Jackson Laboratories) were randomly assigned to one of 3 groups […]. CT-112 (SEQ. ID NO: 1) was prepared for injection by dissolving in sterile PBS. CT-112 (SEQ. ID NO: 1) was administered daily according to the following schedule: a) Control animals (0.1 ml of sterile PBS) (7 mice); b) Low dose CT-112 (0.1 ml sterile PBS containing 0.25 mg CT-112 at 10 mg/kg) (8 mice); and c) High dose CT-112 (0.1 ml sterile PBS containing 2.5 mg of CT-112 at 100 mg/kg) (8 mice). Three days after initial dosing with CT-112 (SEQ. ID NO: 1), all mice were injected intradermally at the base of the tail with 100 μg of bovine type-II collagen in Freund's complete adjuvant. Mice were monitored daily for the onset of disease, and weighed twice weekly with overall health status noted. Arthritis-affected animals were clinically assessed 5 times per week until 10 weeks post-immunization. Paw measurements were taken 3 times per week. Mice lacking signs of arthritis 10 weeks post-immunizationwere considered disease-free. All mice were pre-bled prior to the start of the trial, subsequently again at 2 and 4 weeks post-immunization, again at the onset of CIA, and finally at the termination of the study. Sera were separated and stored at -80° C. ELISA assays were performed to determine anti-collagen antibody concentrations. Spleen and lymph nodes were removed at sacrifice, and single cell suspensions prepared therefrom. Mitogen responses to Con A and LPS, as well as antigen-specific responses to type-II collagen, were determined. Appropriate statistical comparisons (Chi square, Student's T-test and non-parametric median comparisons) were performed using SPSS/PC software to assess the influence of CT-112 (SEQ. ID NO: 1) at both low and high doses on the incidence, onset, severity and progression of collagen-induced arthritis, the antibody response to collagen, T-cell and B-cell mitogen responses, and T-cell specific responses to type-II collagen.

[8] = ip 60 mg/kg/injection at 3, 1, 0.25 hr prior and 3, 6, 21 hr post-challenge
[9] = topical 50 μl of 20 mg/ml in DMSO at 3, 1, 0.25 hr prior and 3, 6, 21 hr post-challenge

TTSQVRPR [CT-112, octapeptide derived from platelet factor 4]
number of revertants (histidine independent growth) [1]: did not cause an increase in the number of revertants
lesions at necropsy [2]: No lesions were visible at necropsy
mean body weight and mean body weight gain vs control [2]: no statistical differences
clinical effects ([2]; one mouse at 500 and two at 1,000 mg/kg, day of treatment): Minimal transient clinical effects (hypoactivity and hypersensitivity)
Myeloperoxidase Activity ([3]; 0.05 mg/animal/day minipump): 19.6 ± 15.6 μmole of chromophore formed/mi
Myeloperoxidase Activity ([3]; 0.1 mg/animal/day minipump): 17.0 ± 9.6 μmole of chromophore formed/mi
Myeloperoxidase Activity ([3]; 1.0 mg/animal/day minipump): 14.7 ± 13.3 μmole of chromophore formed/mi
chemotactic migration of neutrophils to LTB4 [4]: effectively inhibited
lesions at necropsy [5]: No lesions were visible at necropsy
mean body weight and mean body weight gain vs control [5]: no statistical differences
clinical effects ([5]; several rats at 500 and 1,000 mg/kg, day of treatment): Transient clinical effects (hypoactivity, hypersensitiviy, staggered gait, cyanosis and absence of righting reflex)
% Inhibition of Inflammation ([6]; 7-day pump, 60 mg/kg/24 hr): 79.7%
Thickness Difference (Left-Right) ([6]; 7-day pump, 60 mg/kg/24 hr): 0.00087 ± 0.000398 in
% Inhibition of Inflammation [6, 8]: 68.4%
Thickness Difference (Left-Right) [6, 8]: 0.00169 ± 0.000643 in
% Inhibition of Inflammation [6, 9]: 18.2%
Thickness Difference (Left-Right) [6, 9]: 0.0035 ± 0.000408 in
anti-collagen antibody reduction in serum ([7]; 4 wks post-immunization, high dose group, p=0.028, FIG. 14): statistically significant
effects on synovitis and pannus (histopathology) ([7]; both high and low doses, FIG. 13): not significant
disease-induced loss of joint architecture (histopathology) ([7]; both high and low doses, p≤0.05, FIG. 13): significantly reducing
spleen cell response to Con A and to LPS ([7]; cells from treated mice): neither immunosuppression nor immunoactivation
final incidence of CIA ([7]; high dose, 100 mg/kg daily): 50%
Maximum paw swelling ([7]; low and high dose): not influenced
final incidence of CIA ([7]; low dose, 10 mg/kg daily): 62.5%
involved paws in remission at the conclusion of the trial ([7]; low dose, 10 mg/kg daily): 25%
number of involved paws ([7]; low dose, 10 mg/kg daily, p=0.035 vs control, FIG. 11): significantly fewer paws

— US5776892A, “Anti-inflammatory peptides” (Curative Health Services, Inc., priority 1994, dated 1998)
